Results taken from patent publication EP4745135A1 (Gluetacs Therapeutics (Shanghai) Co., Ltd., priority 2023, dated 2025).

Columns and labels:
CK1α = biological target: T1, CK1α (Homo sapiens, UniProt P48729+Q96SW2); assay: Western blot, degradation of substrate protein in hPBMCs; type: cell-based
T1 construct: effects of the compounds of the present disclosure on the expression of target proteins in cells; endogenous in cells; host or cells: human PBMCs (Milecell Biotechnologies)
Protocol: (§1) Conventional Western blot assay was performed to evaluate the effects of the compounds of the present disclosure on the expression of target proteins in cells. • (1) Cell Seeding and Protein Harvesting: Human peripheral blood mononuclear cells (hPBMCs) at a density of 1×10^6 cells/mL were thawed according to the PBMC Recovery Protocol (Milecell Biotechnologies Inc, Shanghai). […] After 24 hours of compounds treatment, cells were harvested and lysed in RIPA protein lysate containing protease inhibitors on ice for 30 min, followed by centrifugation. The supernatant was aspirated as the extracted total cell protein. The protein concentration of the supernatant was determined using the conventional BCA (Bicinchoninic Acid) assay. • (2) To the collected supernatant, 5X SDS sample loading buffer was added, followed by denaturation at 95°C for 5 minutes. The denatured samples were then separated by SDS-PAGE electrophoresis on a polyacrylamide gel, transferred onto a nitrocellulose membrane (0.45 µm NC membrane), blocked with blocking buffer at room temperature for 1 hour, and subjected to antibody incubation and development procedures according to the antibody manufacturer's instructions (Cell Signaling Technology Company).
(§2) Half-Maximal Degradation Concentration value (the drug concentration required for degrading proteins by 50%, abbreviated as DC50) reads method: comparing the grayscale values of Western blot bands from drug-treated samples with those from blank DMSO-treated controls, and identifying the drug concentration range at which the grayscale value is half that of the DMSO-treated control bands.
(§3) DC50 values can be calculated using ImageJ software to measure grayscale values of Western blot bands from drug-treated samples. The concentration-response curve is fitted to estimate the drug concentration corresponding to half the grayscale value.
(§4) Target protein remaining (%) refers to the percentage of target protein remaining in cells after treatment with protein degrader compounds.
(§5) Calculation method for target protein remaining (%): Use ImageJ software to measure grayscale values of Western blot bands from drug (protein degrader)-treated samples. The grayscale value of drug-treated bands is divided by that of internal control protein bands, and the resulting quotient is normalized to obtain the relative percentage of remaining target protein after protein degrader treatment.
(§6) Target protein degradation rate (%) = 1−target protein remaining (%). [formula]

IKZF1 = biological target: T2, IKZF1 (Homo sapiens, UniProt Q13422+Q96SW2); assay: as above; type: cell-based
T2 construct: effects of the compounds of the present disclosure on the expression of target proteins in cells; endogenous in cells; host or cells: human PBMCs (Milecell Biotechnologies)
Protocol: as §1, §2, §3, §4, §5, §6

IKZF2 = biological target: T3, IKZF2 (Homo sapiens, UniProt Q96SW2+Q9UKS7); assay: as above; type: cell-based
T3 construct: effects of the compounds of the present disclosure on the expression of target proteins in cells; endogenous in cells; host or cells: human PBMCs (Milecell Biotechnologies)
Protocol: as §1, §2, §3, §4, §5, §6

IKZF3 = biological target: T4, IKZF3 (Homo sapiens, UniProt Q96SW2+Q9UKT9); assay: as above; type: cell-based
T4 construct: effects of the compounds of the present disclosure on the expression of target proteins in cells; endogenous in cells; host or cells: human PBMCs (Milecell Biotechnologies)
Protocol: as §1, §2, §3, §4, §5, §6

WEE1 = biological target: T5, WEE1 (Homo sapiens, UniProt P30291+Q96SW2); assay: as above; type: cell-based
T5 construct: effects of the compounds of the present disclosure on the expression of target proteins in cells; endogenous in cells; host or cells: human PBMCs (Milecell Biotechnologies)
Protocol: as §1, §2, §3, §4, §5, §6

GSPT1 = assay: as above; type: cell-based, Human
Protocol: as §1, §2, §3, §4, §5, §6

[1] = biological target: T6, human Cereblon WT GST-tagged protein (Homo sapiens, UniProt Q96SW2); assay: CRBN-binding affinity, HTRF (CEREBLON BINDING kit); conditions: for IC50: CRBN binding, HTRF, 3 hours at room temperature, read-out: HTRF IC50
T6 construct: purchased CISBIO 64BDCRBNPEH

[2] = Western blot, 24 hours of compound treatment, compounds tested at 50 nM and 500 nM (concentration for the table not stated)
[3] = 24 hours treatment, compounds at 50 nM and 500 nM (concentration behind the class not stated)

T3 sequence (Q9UKS7 whole entry): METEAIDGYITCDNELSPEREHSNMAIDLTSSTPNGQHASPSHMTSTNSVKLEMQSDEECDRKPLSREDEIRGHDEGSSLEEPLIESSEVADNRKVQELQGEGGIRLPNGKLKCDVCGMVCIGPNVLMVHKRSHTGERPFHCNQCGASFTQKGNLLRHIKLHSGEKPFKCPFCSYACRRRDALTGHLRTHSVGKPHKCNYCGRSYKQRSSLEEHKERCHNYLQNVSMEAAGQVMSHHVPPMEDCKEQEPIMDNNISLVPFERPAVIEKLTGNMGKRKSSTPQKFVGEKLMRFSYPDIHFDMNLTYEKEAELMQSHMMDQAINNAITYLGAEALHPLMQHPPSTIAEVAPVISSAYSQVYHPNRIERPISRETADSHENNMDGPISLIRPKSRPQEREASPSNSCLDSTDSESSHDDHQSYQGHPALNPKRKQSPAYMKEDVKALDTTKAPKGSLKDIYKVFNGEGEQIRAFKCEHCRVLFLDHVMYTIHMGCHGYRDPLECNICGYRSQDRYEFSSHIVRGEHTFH
T3 sequence (Q96SW2 whole entry): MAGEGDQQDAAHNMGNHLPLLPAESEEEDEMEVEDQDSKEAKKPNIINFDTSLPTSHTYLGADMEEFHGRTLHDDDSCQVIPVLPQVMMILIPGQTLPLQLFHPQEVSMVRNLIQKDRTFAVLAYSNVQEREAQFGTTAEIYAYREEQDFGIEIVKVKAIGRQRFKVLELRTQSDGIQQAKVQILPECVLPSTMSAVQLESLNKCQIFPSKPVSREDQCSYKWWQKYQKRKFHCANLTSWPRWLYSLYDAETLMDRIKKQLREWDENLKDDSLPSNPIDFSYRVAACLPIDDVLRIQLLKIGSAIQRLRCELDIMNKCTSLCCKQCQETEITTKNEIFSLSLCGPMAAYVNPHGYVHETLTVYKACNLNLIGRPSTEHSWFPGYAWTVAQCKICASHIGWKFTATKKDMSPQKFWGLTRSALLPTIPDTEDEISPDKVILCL
T3 sequence (Q16531 whole entry partner): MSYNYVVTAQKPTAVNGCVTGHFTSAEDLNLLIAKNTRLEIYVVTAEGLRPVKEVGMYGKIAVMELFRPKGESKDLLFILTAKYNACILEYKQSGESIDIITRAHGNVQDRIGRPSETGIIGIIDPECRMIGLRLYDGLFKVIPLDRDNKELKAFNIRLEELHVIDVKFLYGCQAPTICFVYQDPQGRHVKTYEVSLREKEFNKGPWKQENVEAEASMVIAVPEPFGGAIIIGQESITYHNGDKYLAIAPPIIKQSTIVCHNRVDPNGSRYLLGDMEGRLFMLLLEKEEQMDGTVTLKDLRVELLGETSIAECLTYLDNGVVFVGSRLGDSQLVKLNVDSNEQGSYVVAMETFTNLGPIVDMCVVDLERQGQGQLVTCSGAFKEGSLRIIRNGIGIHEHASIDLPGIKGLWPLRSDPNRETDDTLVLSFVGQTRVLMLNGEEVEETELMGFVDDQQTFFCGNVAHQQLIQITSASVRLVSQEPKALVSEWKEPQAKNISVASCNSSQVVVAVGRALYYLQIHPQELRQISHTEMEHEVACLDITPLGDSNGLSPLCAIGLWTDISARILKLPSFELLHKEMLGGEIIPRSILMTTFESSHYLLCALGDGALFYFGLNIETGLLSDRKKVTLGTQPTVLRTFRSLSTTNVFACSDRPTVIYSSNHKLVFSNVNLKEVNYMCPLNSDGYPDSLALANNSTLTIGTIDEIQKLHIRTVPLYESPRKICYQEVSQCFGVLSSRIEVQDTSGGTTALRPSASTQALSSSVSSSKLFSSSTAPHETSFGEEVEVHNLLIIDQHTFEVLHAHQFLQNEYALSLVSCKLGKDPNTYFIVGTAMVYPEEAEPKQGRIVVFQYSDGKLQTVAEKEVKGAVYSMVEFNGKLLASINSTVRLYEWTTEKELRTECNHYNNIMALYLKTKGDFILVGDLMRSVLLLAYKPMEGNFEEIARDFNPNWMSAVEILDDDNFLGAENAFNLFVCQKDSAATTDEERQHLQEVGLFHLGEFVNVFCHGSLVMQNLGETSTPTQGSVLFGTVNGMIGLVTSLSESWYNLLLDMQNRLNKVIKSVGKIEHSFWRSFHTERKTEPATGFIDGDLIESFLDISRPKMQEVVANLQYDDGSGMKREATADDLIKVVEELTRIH
T6 sequence (Q96SW2 whole entry): as the sequence (Q96SW2 whole entry) above
T4 sequence (Q9UKT9 whole entry): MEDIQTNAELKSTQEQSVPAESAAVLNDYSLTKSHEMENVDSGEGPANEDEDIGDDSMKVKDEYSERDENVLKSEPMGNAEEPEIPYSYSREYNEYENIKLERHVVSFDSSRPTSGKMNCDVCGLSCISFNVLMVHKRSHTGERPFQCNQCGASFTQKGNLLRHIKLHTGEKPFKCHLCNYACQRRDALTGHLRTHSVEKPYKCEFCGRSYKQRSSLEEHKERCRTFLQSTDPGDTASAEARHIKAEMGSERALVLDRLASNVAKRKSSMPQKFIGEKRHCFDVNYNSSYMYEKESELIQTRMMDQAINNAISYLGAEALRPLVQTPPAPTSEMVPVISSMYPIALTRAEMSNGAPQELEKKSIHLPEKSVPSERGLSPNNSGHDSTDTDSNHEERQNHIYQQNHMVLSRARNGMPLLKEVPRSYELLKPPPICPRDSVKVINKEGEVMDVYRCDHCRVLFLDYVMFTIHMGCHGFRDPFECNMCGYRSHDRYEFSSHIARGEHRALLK
T4 sequence (Q96SW2 whole entry): as the sequence (Q96SW2 whole entry) above
T4 sequence (Q16531 whole entry partner): as the sequence (Q16531 whole entry partner) above
T1 sequence (P48729 whole entry): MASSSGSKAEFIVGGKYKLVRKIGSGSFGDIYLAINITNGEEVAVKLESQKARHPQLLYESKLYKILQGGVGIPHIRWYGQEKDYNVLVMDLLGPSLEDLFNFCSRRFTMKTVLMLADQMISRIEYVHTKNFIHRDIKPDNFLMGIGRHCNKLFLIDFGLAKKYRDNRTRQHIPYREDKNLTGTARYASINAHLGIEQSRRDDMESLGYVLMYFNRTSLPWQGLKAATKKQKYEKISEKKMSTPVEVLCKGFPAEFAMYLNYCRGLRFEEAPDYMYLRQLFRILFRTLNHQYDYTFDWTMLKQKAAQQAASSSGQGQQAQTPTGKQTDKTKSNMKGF
T1 sequence (Q96SW2 whole entry): as the sequence (Q96SW2 whole entry) above
T1 sequence (Q16531 whole entry partner): as the sequence (Q16531 whole entry partner) above
T2 sequence (Q13422 whole entry): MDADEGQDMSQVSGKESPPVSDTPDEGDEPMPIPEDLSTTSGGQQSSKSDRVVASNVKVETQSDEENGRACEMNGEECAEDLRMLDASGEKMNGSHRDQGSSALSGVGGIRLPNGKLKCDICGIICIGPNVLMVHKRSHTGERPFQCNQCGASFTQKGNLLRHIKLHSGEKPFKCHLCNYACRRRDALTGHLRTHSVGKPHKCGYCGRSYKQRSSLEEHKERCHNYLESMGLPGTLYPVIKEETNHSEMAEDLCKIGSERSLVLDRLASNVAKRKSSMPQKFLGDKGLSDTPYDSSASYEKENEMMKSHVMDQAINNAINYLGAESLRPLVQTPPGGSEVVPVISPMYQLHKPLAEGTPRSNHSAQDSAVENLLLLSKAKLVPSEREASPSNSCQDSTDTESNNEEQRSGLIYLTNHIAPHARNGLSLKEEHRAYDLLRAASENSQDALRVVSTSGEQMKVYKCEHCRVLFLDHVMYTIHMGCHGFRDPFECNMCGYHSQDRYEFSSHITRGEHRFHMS
T2 sequence (Q96SW2 whole entry): as the sequence (Q96SW2 whole entry) above
T2 sequence (Q16531 whole entry partner): as the sequence (Q16531 whole entry partner) above
T5 sequence (P30291 whole entry): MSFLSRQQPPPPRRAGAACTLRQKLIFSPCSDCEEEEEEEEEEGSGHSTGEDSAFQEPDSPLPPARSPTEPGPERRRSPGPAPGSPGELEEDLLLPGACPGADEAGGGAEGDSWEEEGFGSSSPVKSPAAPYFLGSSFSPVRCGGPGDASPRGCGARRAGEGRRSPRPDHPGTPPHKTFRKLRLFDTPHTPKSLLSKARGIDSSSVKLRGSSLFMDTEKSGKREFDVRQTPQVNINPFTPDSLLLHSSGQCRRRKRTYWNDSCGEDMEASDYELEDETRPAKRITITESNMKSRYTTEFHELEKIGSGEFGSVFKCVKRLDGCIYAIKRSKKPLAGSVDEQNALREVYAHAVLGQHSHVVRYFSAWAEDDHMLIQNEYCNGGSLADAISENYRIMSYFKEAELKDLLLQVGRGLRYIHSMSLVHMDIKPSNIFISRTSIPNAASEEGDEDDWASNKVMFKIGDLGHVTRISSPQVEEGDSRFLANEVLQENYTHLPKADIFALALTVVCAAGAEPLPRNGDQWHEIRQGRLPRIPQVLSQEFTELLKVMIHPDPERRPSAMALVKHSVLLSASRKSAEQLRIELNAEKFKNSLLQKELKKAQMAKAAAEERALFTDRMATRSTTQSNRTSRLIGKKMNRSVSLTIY
T5 sequence (Q96SW2 whole entry): as the sequence (Q96SW2 whole entry) above
T5 sequence (Q16531 whole entry partner): as the sequence (Q16531 whole entry partner) above

| Compound | IC50 [1] [nM] | inhibition at 0.5 µM ([1]; read-out: Inhibition Rate at 0.5 µM (%)) [%] | inhibition at 2 µM ([1]; read-out: Inhibition Rate at 2 µM (%)) [%] | CK1α substrate protein remaining % (CK1α; [2]) | IKZF 1 substrate protein remaining % (IKZF1; [2]) | IKZF2 substrate protein remaining % (IKZF2; [2]) | IKZF3 substrate protein remaining % (IKZF3; [2]) | Wee1 substrate protein remaining % (WEE1; [2]) | GSPT1 substrate protein remaining % (GSPT1; [2]) | CK1α substrate protein remaining % (CK1α; [3]) | IKZF 1 substrate protein remaining % (IKZF1; [3]) | IKZF2 substrate protein remaining % (IKZF2; [3]) | IKZF3 substrate protein remaining % (IKZF3; [3]) | Wee1 substrate protein remaining % (WEE1; [3]) | GSPT1 substrate protein remaining % (GSPT1; [3]) |
| --- | --- | --- | --- | --- | --- | --- | --- | --- | --- | --- | --- | --- | --- | --- | --- |
| O=C1CCC(N2Cc3ccc(CN4CCN(C(c5ccccc5)c5ccccn5)CC4)cc3C2=S)C(=O)N1 (stereo not drawn) [GT-05041, 3-(6-((4-(phenyl(pyridin-2-yl)methyl)piperazin-1-yl)methyl)-1-thioxoisoindolin-2-yl)piperidine-2,6-dione] | 1500 to 1900 | – | – | B (80%< substrate protein remaining %≤ 100%) | A (0% ≤ substrate protein remaining % ≤ 80%) | B (80%< substrate protein remaining %≤ 100%) | B (80%< substrate protein remaining %≤ 100%) | B (80%< substrate protein remaining %≤ 100%) | A (0% ≤ substrate protein remaining % ≤ 80%) | – | – | – | – | – | – |
| O=C1CCC(N2Cc3cc(CN4CCC(c5noc6cc(F)ccc56)CC4)ccc3C2=S)C(=O)N1 (stereo not drawn) [GT-05089, 3-(5-((4-(6-fluorobenzo[d]isoxazol-3-yl)piperidin-1-yl)methyl)-1-thioxoisoindolin-2-yl)piperidine-2,6-dione] | < 100 | – | – | B (80%< substrate protein remaining %≤ 100%) | B (80%< substrate protein remaining %≤ 100%) | B (80%< substrate protein remaining %≤ 100%) | B (80%< substrate protein remaining %≤ 100%) | B (80%< substrate protein remaining %≤ 100%) | A (0% ≤ substrate protein remaining % ≤ 80%) | – | – | – | – | – | – |
| Cc1ccc(N2CCN(Cc3ccc4c(c3)CN(C3CCC(=O)NC3=O)C4=S)CC2)s1 (stereo not drawn) [GT-05110, 3-(5-((4-(5-methylthiophen-2-yl)piperazin-1-yl)methyl)-1-thioxoisoindolin-2-yl)piperidine-2,6-dione] | 100 to 500 | – | – | B (80%< substrate protein remaining %≤ 100%) | B (80%< substrate protein remaining %≤ 100%) | B (80%< substrate protein remaining %≤ 100%) | B (80%< substrate protein remaining %≤ 100%) | B (80%< substrate protein remaining %≤ 100%) | A (0% ≤ substrate protein remaining % ≤ 80%) | – | – | – | – | – | – |
| Cc1cscc1N1CCN(Cc2ccc3c(c2)CN(C2CCC(=O)NC2=O)C3=S)CC1 (stereo not drawn) [GT-05113, 3-(5-((4-(4-methylthiophen-3-yl)piperazin-1-yl)methyl)-1-thioxoisoindolin-2-yl)piperidine-2,6-dione] | < 100 | – | – | B (80%< substrate protein remaining %≤ 100%) | A (0% ≤ substrate protein remaining % ≤ 80%) | B (80%< substrate protein remaining %≤ 100%) | A (0% ≤ substrate protein remaining % ≤ 80%) | B (80%< substrate protein remaining %≤ 100%) | A (0% ≤ substrate protein remaining % ≤ 80%) | – | – | – | – | – | – |
| O=C1CCC(N2Cc3cc(CN4CCC(c5ccco5)CC4)ccc3C2=S)C(=O)N1 (stereo not drawn) [GT-05148, 3-(5-((4-(furan-2-yl)piperidin-1-yl)methyl)-1-thioxoisoindolin-2-yl)piperidine-2,6-dione] | 100 to 500 | – | – | B (80%< substrate protein remaining %≤ 100%) | B (80%< substrate protein remaining %≤ 100%) | B (80%< substrate protein remaining %≤ 100%) | B (80%< substrate protein remaining %≤ 100%) | B (80%< substrate protein remaining %≤ 100%) | A (0% ≤ substrate protein remaining % ≤ 80%) | – | – | – | – | – | – |
| CC1(C)CCC(CN2CCN(Cc3ccc4c(c3)CN(C3CCC(=O)NC3=O)C4=S)CC2)=C(c2ccc(Cl)cc2)C1 (stereo not drawn) [GT-05151, 3-(5-((4-((4'-chloro-5,5-dimethyl-3,4,5,6-tetrahydro-[1,1'-biphenyl]-2-yl)methyl)piperazin-1-yl)methyl)-1-thioxoisoindolin-2-yl)piperidine-2,6-dione] | 500 to 1000 | – | – | B (80%< substrate protein remaining %≤ 100%) | A (0% ≤ substrate protein remaining % ≤ 80%) | A (0% ≤ substrate protein remaining % ≤ 80%) | A (0% ≤ substrate protein remaining % ≤ 80%) | A (0% ≤ substrate protein remaining % ≤ 80%) | A (0% ≤ substrate protein remaining % ≤ 80%) | – | – | – | – | – | – |
| O=C1CCC(N2Cc3cc(CN4CC=C(c5cccc6cnccc56)CC4)ccc3C2=S)C(=O)N1 (stereo not drawn) [GT-05246, 3-(5-((4-(isoquinolin-5-yl)-3,6-dihydropyridin-1(2H)-yl)methyl)-1-thioxoisoindolin-2-yl)piperidine-2,6-dione] | 100 to 500 | – | – | B (80%< substrate protein remaining %≤ 100%) | B (80%< substrate protein remaining %≤ 100%) | B (80%< substrate protein remaining %≤ 100%) | B (80%< substrate protein remaining %≤ 100%) | A (0% ≤ substrate protein remaining % ≤ 80%) | A (0% ≤ substrate protein remaining % ≤ 80%) | – | – | – | – | – | – |

More lines, main results first:

| IC50 [1] [nM] | inhibition at 0.5 µM ([1]; read-out: Inhibition Rate at 0.5 µM (%)) [%] | inhibition at 2 µM ([1]; read-out: Inhibition Rate at 2 µM (%)) [%] | Compound | CK1α substrate protein remaining % (CK1α; [2]) | IKZF 1 substrate protein remaining % (IKZF1; [2]) | IKZF2 substrate protein remaining % (IKZF2; [2]) | IKZF3 substrate protein remaining % (IKZF3; [2]) | Wee1 substrate protein remaining % (WEE1; [2]) | GSPT1 substrate protein remaining % (GSPT1; [2]) | CK1α substrate protein remaining % (CK1α; [3]) | IKZF 1 substrate protein remaining % (IKZF1; [3]) | IKZF2 substrate protein remaining % (IKZF2; [3]) | IKZF3 substrate protein remaining % (IKZF3; [3]) | Wee1 substrate protein remaining % (WEE1; [3]) | GSPT1 substrate protein remaining % (GSPT1; [3]) |
| --- | --- | --- | --- | --- | --- | --- | --- | --- | --- | --- | --- | --- | --- | --- | --- |
| < 100 | – | – | O=C1CCC(N2Cc3ccccc3C2=S)C(=O)N1 (stereo not drawn) [GT-05563, 3-(1-thioxoisoindolin-2-yl)piperidine-2,6-dione] | – | – | – | – | – | – | B (80%< substrate protein remaining %≤ 100%) | A (0% ≤ substrate protein remaining % ≤ 80%) | A (0% ≤ substrate protein remaining % ≤ 80%) | A (0% ≤ substrate protein remaining % ≤ 80%) | A (0% ≤ substrate protein remaining % ≤ 80%) | B (80%< substrate protein remaining %≤ 100%) |
| 100 to 500 | – | – | O=C1CCC(N2Cc3ccc(CO)cc3C2=S)C(=O)N1 (stereo not drawn) [GT-05566, 3-(6-(hydroxymethyl)-1-thioxoisoindolin-2-yl)piperidine-2,6-dione] | – | – | – | – | – | – | B (80%< substrate protein remaining %≤ 100%) | A (0% ≤ substrate protein remaining % ≤ 80%) | A (0% ≤ substrate protein remaining % ≤ 80%) | A (0% ≤ substrate protein remaining % ≤ 80%) | A (0% ≤ substrate protein remaining % ≤ 80%) | B (80%< substrate protein remaining %≤ 100%) |
| < 100 | – | – | O=C1CCC(N2Cc3cc(CO)ccc3C2=S)C(=O)N1 (stereo not drawn) [GT-06977, 3-(5-(hydroxymethyl)-1-thioxoisoindolin-2-yl)piperidine-2,6-dione] | – | – | – | – | – | – | B (80%< substrate protein remaining %≤ 100%) | B (80%< substrate protein remaining %≤ 100%) | B (80%< substrate protein remaining %≤ 100%) | A (0% ≤ substrate protein remaining % ≤ 80%) | A (0% ≤ substrate protein remaining % ≤ 80%) | B (80%< substrate protein remaining %≤ 100%) |
| – | 53 to 60 | 80 to 100 | O=C1CCC(N2Cc3cc(CN4CCN(C(c5ccccc5)c5cccnc5)CC4)ccc3C2=S)C(=O)N1 (stereo not drawn) [GT-07732, 3-(5-((4-(phenyl(pyridin-3-yl)methyl)piperazin-1-yl)methyl)-1-thioxoisoindolin-2-yl)piperidine-2,6-dione] | B (80%< substrate protein remaining %≤ 100%) | B (80%< substrate protein remaining %≤ 100%) | B (80%< substrate protein remaining %≤ 100%) | A (0% ≤ substrate protein remaining % ≤ 80%) | A (0% ≤ substrate protein remaining % ≤ 80%) | A (0% ≤ substrate protein remaining % ≤ 80%) | – | – | – | – | – | – |
